Experimental data from patent US9204653B2, “5-fluoro pyrimidine derivatives” (DOW AGROSCIENCES LLC, priority 2008, dated 2015).
Where two headings read alike, the source gives them in different places.

How the values were obtained:
[1] = test system: Venturia inaequalis; Bayer Code VENTIN; experiment: Apple scab; format: in vivo; details: 24 h, % disease control rating, one day protectant; for pest or weed control at 25 ppm: read-out: VENTIN 1 DP 25 ppm; for pest or weed control at 75 ppm: read-out: VENTIN 1 DP 75 ppm
[2] = test system: Mycosphaerella graminicola; Anamorph: Septoria tritici; Bayer Code SEPTTR; experiment: Leaf blotch of wheat, foliar fungicide treatment, one day protectant (1DP) or three day curative (3DC); format: in vivo, Septoria tritici on wheat plants (variety Yuma); details: Zymoseptoria tritici
[3] = 24 h, one day protectant (1DP), 25 ppm, percent disease control rating, read-out: SETTTR 1DP 25 ppm
[4] = 24 h, one day protectant (1DP), percent disease control rating, read-out: SEPTTR 1DP 100 ppm
[5] = 72 h, three day curative (3DC), 25 ppm, percent disease control rating, read-out: SEPTTR 3DC 25 ppm
[6] = 72 h, three day curative (3DC), percent disease control rating, read-out: SEPTTR 3DC 100 ppm
[7] = 24 h, one day protectant (1DP), 25 ppm (first 1DP column), percent control rating, read-out: SETTTR 1DP 25 ppm
[8] = 24 h, one day protectant (1DP), 25 ppm as printed (second 1DP column), percent control rating, read-out: SETTTR 1DP 25 ppm
[9] = 72 h, three day curative (3DC), 25 ppm, percent control rating, read-out: SEPTTR 3DC 25 ppm
[10] = 72 h, three day curative (3DC), percent control rating, read-out: SEPTTR 3DC 100 ppm
[11] = 24 h, one day protectant (1DP), 25 ppm (first 1DP column), percent disease control rating, read-out: SETTTR 1DP 25 ppm
[12] = 24 h, one day protectant (1DP), 25 ppm as printed (second 1DP column), percent disease control rating, read-out: SETTTR 1DP 25 ppm

Structure (SMILES)	pest or weed control at 25 ppm [1]	pest or weed control at 75 ppm [1]	pest or weed control at 25 ppm [2, 3]	pest or weed control at 100 ppm [2, 4]	pest or weed control at 25 ppm [2, 5]	pest or weed control at 100 ppm [2, 6]	pest or weed control at 25 ppm [2, 7]	pest or weed control at 25 ppm [2, 8]	pest or weed control at 25 ppm [2, 9]	pest or weed control at 100 ppm [2, 10]	pest or weed control at 25 ppm [2, 11]	pest or weed control at 25 ppm [2, 12]
CC(Oc1ncc(F)c(N)n1)c1ccc(F)cc1 (stereo not drawn) [Compound 3, 5-Fluoro-2-[1-(4-fluorophenyl)ethoxy]pyrimidin-4-ylamine]	0 to 25%	76 to 100%	76 to 100%	76 to 100%	76 to 100%	76 to 100%	–	–	–	–	–	–
Nc1nc(OCc2cccs2)ncc1F [Compound 5, 5-Fluoro-2-(thiophen-2-ylmethoxy)-pyrimidin-4-ylamine]	76 to 100%	76 to 100%	76 to 100%	76 to 100%	76 to 100%	76 to 100%	–	–	–	–	–	–
CN(C)/C=N/c1nc(OCc2ccc(F)cc2)ncc1F [Compound 20, N-[5-Fluoro-2-(4-fluorobenzyloxy)pyrimidin-4-yl]-N,N dimethyl-formamidine]	51 to 75%	76 to 100%	76 to 100%	76 to 100%	76 to 100%	76 to 100%	–	–	–	–	–	–
COc1cccc(COc2ncc(F)c(N)n2)c1 [Compound 35]	76 to 100%	76 to 100%	76 to 100%	76 to 100%	76 to 100%	76 to 100%	–	–	–	–	–	–
Nc1nc(OCc2ccccc2)ncc1F [Compound 46]	76 to 100%	76 to 100%	76 to 100%	76 to 100%	76 to 100%	76 to 100%	–	–	–	–	–	–
O=S(=O)(Nc1nc(O)ncc1F)C1CC1 [Compound 1104]	–	–	–	–	–	–	0 to 25%	0 to 25%	0 to 25%	0 to 25%	–	–
CCS(=O)(=O)Nc1nc(O)ncc1F [Compound 1105]	–	–	–	–	–	–	0 to 25%	0 to 25%	0 to 25%	0 to 25%	–	–
COc1nn(C)c(C(F)(F)F)c1S(=O)(=O)Nc1nc(O)ncc1F [Compound 1106]	–	–	–	–	–	–	0 to 25%	0 to 25%	0 to 25%	0 to 25%	–	–
O=S(=O)(Nc1nc(OCc2cccs2)ncc1F)c1ccccc1 [Compound 1107]	–	–	–	–	–	–	0 to 25%	0 to 25%	0 to 25%	0 to 25%	–	–
C/C(=N\Nc1nc(O)ncc1F)c1ccc(Br)cc1 [Compound 1108]	–	–	–	–	–	–	0 to 25%	0 to 25%	0 to 25%	0 to 25%	–	–
C=CCOc1ncc(F)c(/N=N/c2cc(C)ccc2C)n1 [Compound 1109]	–	–	–	–	–	–	0 to 25%	0 to 25%	0 to 25%	0 to 25%	–	–
COc1ncc(F)c(/N=N/c2ccccc2Cl)n1 [Compound 1110]	–	–	–	–	–	–	0 to 25%	0 to 25%	0 to 25%	0 to 25%	–	–
Oc1ncc(F)c(N/N=C/c2ccco2)n1 [Compound 1112]	–	–	–	–	–	–	0 to 25%	0 to 25%	0 to 25%	26 to 50%	–	–
CC(C)(C)C(=O)OCOc1ncc(F)c(NC=O)n1 [Compound 1113]	–	–	–	–	–	–	76 to 100%	76 to 100%	76 to 100%	76 to 100%	–	–
C/C(=N\Oc1ncc(F)c(N)n1)C(F)(F)F [Compound 1114]	–	–	–	–	–	–	0 to 25%	0 to 25%	26 to 50%	76 to 100%	–	–
CCOCNc1nc(O)ncc1F [Compound 1115]	–	–	–	–	–	–	26 to 50%	76 to 100%	26 to 50%	76 to 100%	–	–
Oc1ncc(F)c(N/N=C/c2ccccc2Cl)n1 [Compound 1118]	–	–	–	–	–	–	0 to 25%	0 to 25%	0 to 25%	0 to 25%	–	–
CC(C)(C)C(=O)OCOc1ncc(F)c(N)n1 [Compound 1119]	–	–	–	–	–	–	76 to 100%	76 to 100%	76 to 100%	76 to 100%	–	–
COc1ncc(F)c(NNC(=O)Cc2ccccc2)n1 [Compound 1120]	–	–	–	–	–	–	0 to 25%	0 to 25%	0 to 25%	0 to 25%	–	–
COc1ncc(F)c(NNC(=O)c2ccc(Cl)cc2)n1 [Compound 1121]	–	–	–	–	–	–	0 to 25%	0 to 25%	0 to 25%	0 to 25%	–	–
C=CCOc1ncc(F)c(NNC(=O)C=C(C)C)n1 [Compound 1123]	–	–	–	–	–	–	0 to 25%	0 to 25%	0 to 25%	0 to 25%	–	–
C=CCOc1ncc(F)c(NNC(=O)c2ccncc2)n1 [Compound 1124]	–	–	–	–	–	–	0 to 25%	0 to 25%	0 to 25%	0 to 25%	–	–
CC(=O)OCOc1ncc(F)c(NC=O)n1 [Compound 1125]	–	–	–	–	–	–	76 to 100%	76 to 100%	76 to 100%	76 to 100%	–	–
O=CNc1nc(OCOC(=O)C2CCCC2)ncc1F [Compound 1126]	–	–	–	–	–	–	76 to 100%	76 to 100%	76 to 100%	76 to 100%	–	–
CSCOc1ncc(F)c(/N=C/N(C)C)n1 [Compound 1127]	–	–	–	–	–	–	76 to 100%	76 to 100%	76 to 100%	76 to 100%	–	–
COc1ncc(F)c(N(NC(=O)c2ccc(Cl)cc2)C(=O)c2ccc(Cl)cc2)n1 [Compound 1128]	–	–	–	–	–	–	0 to 25%	0 to 25%	0 to 25%	0 to 25%	–	–
Cc1ccc(COc2ncc(F)c(NC#N)n2)cc1 [Compound 1130]	–	–	–	–	26 to 50%	0 to 25%	–	–	–	–	0 to 25%	0 to 25%
CCN(/C=N/c1nc(O)ncc1F)CC [Compound 1131]	–	–	–	–	76 to 100%	76 to 100%	–	–	–	–	76 to 100%	76 to 100%
O=S(=O)(Cc1ccccc1)Nc1nc(O)ncc1F [Compound 1132]	–	–	–	–	76 to 100%	76 to 100%	–	–	–	–	51 to 75%	51 to 75%
